Reference: ChEMBL document CHEMBL4680276, “Structure-Activity Relationships of Daptomycin Lipopeptides” (2020)
Converted amounts (≈) assume the structure as drawn.

Columns and labels:
Type in all cases: functional
[1] = Antibacterial activity against Streptomyces sp. WAC4713 measured up to 55 hrs; conditions: Streptomyces sp. WAC4713, 55 h; time hrs <=55
Bacillus subtilis [2] = assay: Antibacterial activity against Bacillus subtilis PY79 incubated for 18 hrs in presence of 73.6 mg/L Ca2+ by visual method
Bacillus subtilis [3] = assay: Antibacterial activity against Bacillus subtilis ATCC1046 in presence of 1.25 mM Ca2+ by serial dilution method; conditions: time 18 hrs
Staphylococcus aureus = assay: Antibacterial activity against Staphylococcus aureus ATCC 29213 incubated for 12 hrs in presence of 1.25 mM Ca2+ by broth microdilution method

Row | Structure (SMILES) | MIC90 (Bacillus subtilis [2]) | also measured
1 | CCCCCCCCCC(=O)N[C@@H](Cc1c[nH]c2ccccc12)C(=O)N[C@H](CC(N)=O)C(=O)N[C@@H](CC(=O)O)C(=O)N[C@@H]1C(=O)NCC(=O)N[C@@H](CCCN)C(=O)N[C@@H](CC(=O)O)C(=O)N[C@H](C)C(=O)N[C@@H](CC(=O)O)C(=O)NCC(=O)N[C@H](CO)C(=O)N[C@@H]([C@H](C)CC(=O)O)C(=O)N[C@@H](CC(=O)c2ccccc2N)C(=O)O[C@@H]1C | 2 µg/mL | MIC [1]: 512 µg/mL (≈ 316 µM)
2 | CCCCCCCCCC(=O)N[C@@H](Cc1c[nH]c2ccccc12)C(=O)N[C@H](CC(N)=O)C(=O)N[C@@H](CC(N)=O)C(=O)N[C@@H]1C(=O)NCC(=O)N[C@@H](CCCCN)C(=O)N[C@@H](CC(=O)O)C(=O)N[C@H](C)C(=O)N[C@@H](CC(=O)O)C(=O)NCC(=O)N[C@H](CO)C(=O)N[C@@H](CCC(=O)O)C(=O)N[C@@H](Cc2c[nH]c3ccccc23)C(=O)O[C@@H]1C |  | MIC (Bacillus subtilis [3]): 1.5 µg/mL
3 | CCCCCCCCCC(=O)N[C@@H](Cc1c[nH]c2ccccc12)C(=O)N[C@H](CC(=O)O)C(=O)N[C@@H](CC(N)=O)C(=O)N[C@@H]1C(=O)N(C)CC(=O)N[C@@H](CCCN)C(=O)N[C@@H](CC(=O)O)C(=O)N[C@H](C)C(=O)N[C@@H](CC(=O)O)C(=O)NCC(=O)N[C@H](CO)C(=O)N[C@@H](CCC(=O)O)C(=O)N[C@@H](CC(=O)c2ccccc2N)C(=O)O[C@@H]1C | 20 µg/mL | 
4 | CCCCCCCCCC(=O)N[C@@H](Cc1c[nH]c2ccccc12)C(=O)N[C@H](CCC(=O)O)C(=O)N[C@@H](CC(N)=O)C(=O)N[C@@H]1C(=O)N(C)CC(=O)N[C@@H](C)C(=O)N[C@@H](CC(=O)O)C(=O)N[C@H](CCCCN)C(=O)N[C@@H](CC(=O)O)C(=O)NCC(=O)N[C@H](CC(N)=O)C(=O)N[C@@H](CCC(=O)O)C(=O)N[C@@H]([C@@H](C)CC)C(=O)O[C@@H]1C | 25 µg/mL | 
5 | CCCCCCCCCC(=O)N[C@@H](Cc1c[nH]c2ccccc12)C(=O)N[C@H](CCC(=O)O)C(=O)N[C@@H](CC(N)=O)C(=O)N[C@H]1COC(=O)[C@H]([C@@H](C)CC)NC(=O)[C@H](CCC(=O)O)NC(=O)[C@@H](CC(N)=O)NC(=O)CNC(=O)[C@H](CC(=O)O)NC(=O)[C@@H](CCCCN)NC(=O)[C@H](CC(=O)O)NC(=O)[C@H](C)NC(=O)CN(C)C1=O | 25 µg/mL | 
6 | CCCCCCCCCC(=O)N[C@@H](Cc1c[nH]c2ccccc12)C(=O)N[C@H](CC(=O)O)C(=O)N[C@@H](CC(N)=O)C(=O)N[C@@H]1C(=O)N(C)CC(=O)N[C@@H](C)C(=O)N[C@@H](CC(=O)O)C(=O)N[C@H](C)C(=O)N[C@@H](CC(=O)O)C(=O)NCC(=O)N[C@H](CO)C(=O)N[C@@H](CCC(=O)O)C(=O)N[C@@H](CC(=O)c2ccccc2N)C(=O)O[C@@H]1C | 20 µg/mL | 
7 | CCCCCCCCCC(=O)N[C@@H](Cc1c[nH]c2ccccc12)C(=O)N[C@H](CC(N)=O)C(=O)N[C@@H](CC(=O)O)C(=O)N[C@@H]1C(=O)NCC(=O)N[C@@H](CCCCN)C(=O)N[C@@H](CC(=O)O)C(=O)N[C@H](C)C(=O)N[C@@H](CC(=O)O)C(=O)NCC(=O)N[C@H](CO)C(=O)N[C@@H](CCC(=O)O)C(=O)N[C@@H](CC(=O)c2ccccc2N)C(=O)O[C@@H]1C |  | MIC (Staphylococcus aureus): 64 µg/mL
8 | CCCCCCCCCC(=O)N[C@@H](Cc1c[nH]c2ccccc12)C(=O)N[C@@H](CC(N)=O)C(=O)N[C@@H](CC(=O)O)C(=O)N[C@@H]1C(=O)NCC(=O)N[C@@H](CCCN)C(=O)N[C@@H](CC(=O)O)C(=O)N[C@H](C)C(=O)N[C@@H](CC(=O)O)C(=O)NCC(=O)N[C@H](CO)C(=O)N[C@H](CCC(=O)O)C(=O)N[C@@H](CC(=O)c2ccccc2N)C(=O)O[C@@H]1C | 11 µg/mL | 
